# Source: US7348152B2, “Rhamnose binding protein” (Solbec Pharmaceutical Limited, priority 2002, dated 2008)
# Key:
# A2058 cells [1] = assay: Staining of cells with fluorescein tagged rhamnose probe (FRITC); assay type: cell-based
# Experimental: A2058 cells were coated at low density in a microscope compatible chamber. The cells were washed with HBS^2+ then incubated with FRITC (top concentration of DMSO=2.5%) for 5-15 min at 37° C. The FRITC was removed, the cells washed twice with HBS^2+ and examined under a visible light microscope. The incubation was repeated with 0-100 μM fluorescein-amine, and for 25 and 6 μM FRITC using a 10^3× excess of unlabelled rhamnose.
# A fluorescein tagged rhamnose probe (FRITC) was prepared as previously described and used to stain A2058 cells.
# FRITC at concentrations from 3-25 μM was incubated with A2058 cells for 15 minutes at 37° C.
# A2058 cells [2] = assay: Co-administration of BEC® and rhamnose, cell survival; assay type: cell-based; conditions: 5 mM rhamnose, 5000 cells, 5 minutes and 4 days
# Experimental: A2058 cells at two different cell densities were treated with BEC® +/−rhamnose and cell survival was monitored after 4 days. The treatments comprised: (i) BEC® only for 4 days (ii) BEC® only for 5 minutes (iii) BEC® and 5 mM rhamnose for 4 days and (iv) BEC® and 5 mM rhamnose for 5 minutes.
# RBP bearing cells = assay: Cell adhesion between RBP bearing cells; assay type: cell-based; conditions: RBP binds ligand
# [3] = test system: rhamnose binding protein (RBP); assay: Dissociation constant of the receptor estimated from the cytotoxicity functions; conditions: read-out: dissociation constant of RBP when bound to the rhamnose moiety of solamargine
# Experimental: Given that the evaluation of the cytotoxicities for different cell lines needed to be conducted using different sized cell populations, it was considered prudent to determine the effect, if any, of cell number on the measured value of LD50. Five cell lines, HT-29, LS174-T, 5637, A431 and MCF-7 were evaluated at four different seeding cell densities. Hs578T and CCD 18Lu were evaluated at three seeding densities and Hs578Bst, both early and late passage cells, were evaluated at two seeding densities.
# In order that the full range of cell densities be evaluated with at least one cell line, a 3-day version of the cytotoxicity was developed. The cell lines involved were recalibtrated for the 3-day format. Multiwell plates were seeded on day 1. Cells were treated with BEC® on day 2 and MTT was added twenty four hours later.
# Comparing the two fitted functions, two distinct regions are discernable (FIG. 8). […] We estimate that the dissociation constant for this receptor is likely to be of the order of 1.5×10^−6 M.
compound,measurement,setting,value
C[C@H](O)[C@H](O)[C@@H](O)[C@@H](O)C=O [rhamnose],inhibition of FRITC staining,A2058 cells [1]; co-incubation with free rhamnose at 10 mM,staining could be inhibited
same,rhamnose competition with BEC® uptake (protective effect),A2058 cells [2],affects the amount of BEC® taken up by the cells
same,cell adhesion of RBP bearing cells,RBP bearing cells,inhibited
C[C@@H]1CC[C@@]2(NC1)O[C@H]1C[C@H]3[C@@H]4CC=C5C[C@@H](O[C@@H]6O[C@H](CO)[C@@H](O[C@@H]7O[C@@H](C)[C@H](O)[C@@H](O)[C@H]7O)[C@H](O)[C@H]6O[C@@H]6O[C@@H](C)[C@H](O)[C@@H](O)[C@H]6O)CC[C@]5(C)[C@H]4CC[C@]3(C)[C@H]1[C@@H]2C [solamargine],Kd,[3],~1.5 µM
Fluorescein Rhamnose-ITC [FRITC],fluorescent staining of cells,"A2058 cells [1]; FRITC 3-25 μM, 15 minutes at 37° C.",found to fluoresce
